Molecular target: T1, FLK-1 receptor (Mus musculus, UniProt P35918)
T1 construct: expressed in transfected cells; host or cells: NIH3T3C7#3 cells (FLK-1 infected)
Test: ELISA assay to measure kinase activity of FLK-1 receptor in FLK-1/NIH cells
Format: cell-based, murine
Conditions: 50 ng/ml VEGF, read-out: ELISA DATA: FLK-1-(Cell.)
Text: For purposes of this application, although the nomenclature of the human and murine counterparts of the generic "flk-I" receptor differ, they are, in many respects, interchangeable. The murine receptor, FLK1, and its human counterpart, KDR, share a sequence homology of 93.4% within the intracellular domain. Likewise, murine FLK-I binds human VEGF with the same affinity as mouse VEGF, and accordingly, is activated by the ligand derived from either species. Millauer et al., 1993, Cell 72:835-846; Quinn et al., 1993, Proc. Natl. Acad. Sci. USA 90:7533-7537. FLK-1 also associates with and subsequently tyrosine phosphorylates human RTK substrates (e.g., PLC-γ or p85) when coexpressed in 293 cells (human embryonal kidney fibroblasts).
ELISA Assay To Measure Kinase Activity Of FLK-I Receptor In FLK-I/NIH Cells
An ELISA assay was conducted to measure the kinase activity of the FLK-I receptor and more specifically, the inhibition or activiation of protein tyrosine kinase activity on the FLK-I receptor.
k. N1H3T3C7#3 Cells (FLK-I infected cells);
1. Coat Corning 96-well elisa plates with 1.0 ug per well Cappel Anti-rabbit IgG antibody in 0.1M Na2CO3 pH 9.6. Bring final volume to 150 ul per well. Coat plates overnight at 4° C. Plates can be kept up to two weeks when stored at 4° C.
2. […]

T1 sequence (P35918 20-1345): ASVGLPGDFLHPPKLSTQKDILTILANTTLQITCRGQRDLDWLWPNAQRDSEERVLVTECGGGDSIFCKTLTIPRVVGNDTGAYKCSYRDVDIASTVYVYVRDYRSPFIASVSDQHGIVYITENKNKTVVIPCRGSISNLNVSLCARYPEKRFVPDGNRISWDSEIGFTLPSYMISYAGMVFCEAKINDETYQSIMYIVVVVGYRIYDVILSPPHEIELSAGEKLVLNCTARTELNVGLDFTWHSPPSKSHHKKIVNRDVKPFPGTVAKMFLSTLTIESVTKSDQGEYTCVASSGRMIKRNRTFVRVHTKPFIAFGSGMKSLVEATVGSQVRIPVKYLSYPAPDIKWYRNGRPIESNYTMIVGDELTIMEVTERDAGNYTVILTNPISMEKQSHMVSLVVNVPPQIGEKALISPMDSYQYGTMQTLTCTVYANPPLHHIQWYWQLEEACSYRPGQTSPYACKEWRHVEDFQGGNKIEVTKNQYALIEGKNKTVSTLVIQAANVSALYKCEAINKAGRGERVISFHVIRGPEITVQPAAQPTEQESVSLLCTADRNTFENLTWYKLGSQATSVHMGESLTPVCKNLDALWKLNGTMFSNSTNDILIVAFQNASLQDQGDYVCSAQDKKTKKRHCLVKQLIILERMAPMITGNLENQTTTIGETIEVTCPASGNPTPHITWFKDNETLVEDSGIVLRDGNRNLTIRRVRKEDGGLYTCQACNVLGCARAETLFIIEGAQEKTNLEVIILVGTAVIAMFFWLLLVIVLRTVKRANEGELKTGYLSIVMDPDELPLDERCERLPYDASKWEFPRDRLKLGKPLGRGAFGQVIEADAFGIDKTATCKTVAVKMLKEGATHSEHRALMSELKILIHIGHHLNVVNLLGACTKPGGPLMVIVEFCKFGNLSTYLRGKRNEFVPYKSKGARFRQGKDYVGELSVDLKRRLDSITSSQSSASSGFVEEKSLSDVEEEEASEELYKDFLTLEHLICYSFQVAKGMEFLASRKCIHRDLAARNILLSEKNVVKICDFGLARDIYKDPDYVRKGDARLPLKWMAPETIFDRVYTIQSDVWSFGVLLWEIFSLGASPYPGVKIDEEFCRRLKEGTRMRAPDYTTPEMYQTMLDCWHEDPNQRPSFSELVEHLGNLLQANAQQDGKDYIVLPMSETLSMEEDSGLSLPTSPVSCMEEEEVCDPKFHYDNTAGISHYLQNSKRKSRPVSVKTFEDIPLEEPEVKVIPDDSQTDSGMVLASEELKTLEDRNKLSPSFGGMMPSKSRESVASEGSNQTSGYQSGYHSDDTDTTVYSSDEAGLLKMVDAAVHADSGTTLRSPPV

IC50 | Compound
> 50 µM | CC(C)c1cc(/C=C(\C#N)S(=O)(=O)c2ccccn2)cc(C(C)C)c1O [Compound 747]
< 50 µM | Cc1cc(/C=C(\C#N)S(=O)(=O)c2ccccc2)cc(C)c1O [Compound 748]

Source: patent publication US5891917A, “Certain acrylonitrile-sulfonamide derivatives” (Sugen, Inc., priority 1997, dated 1999)
